Results taken from patent US20110224208A1, “NOVEL INHIBITORS OF FLAVIVIRUS REPLICATION” (KATHOLIEKE UNIVERSITEIT LEUVEN, K.U. LEUVEN R&D, priority 2008, published 2011).
Values after ≈ are worked out from the molar mass of the structure shown.

Tests used:
[1] = test system: HCV replicon (RNA) synthesis; assay: Quantitative analysis of HCV replicon RNA by Taqman real-time RT-PCR in Huh-5-2 cells; format: cell-based, Hepatitis C virus
Protocol: Replicon cells were plated at 7.5×10^3 cells per well in a 96-well plate plates at 37° C. and 5% CO2 in Dulbecco's modified essential medium containing 10% fetal calf serum, 1% nonessential amino acids and 1 mg/ml Geneticin. After allowing 24 h for cell attachment, different dilutions of compound were added to the cultures. Plates were incubated for 5 days, at which time RNA was extracted using the Qiamp Rneazyi Kit (Qiagen, Hilden, Germany). […] After initial activation of uracil-N-glycosylase at 50° C. for 2 minutes, RT was performed at 60° C. for 30 minutes, followed by inactivation of uracil-N-glycosylase at 95° C. for 5 minutes. Subsequent PCR amplification consisted of 40 cycles of denaturation at 94° C. for 20 seconds and annealing and extension at 62° C. for 1 minute in an ABI 7700 sequence detector. For each PCR run, negative template and positive template samples were used. The cycle threshold value (Ct-value) is defined as the number of PCR cycles for which the signal exceeds the baseline, which defines a positive value. The sample was considered to be positive if the Ct-value was <50. Results are expressed as genomic equivalents (GE).

[2] = Proliferation of exponentially growing Huh-5-2 cells (MTS method); details: human, CC50, concentration required to inhibit the proliferation of exponentially growing Huh-5-2 cells by 50%; Table 4
Outline: (§1)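 Huh-5-2 cells carrying the luciferase HCV replicon, seeded 24 h, then exposed to serial compound dilutions without G418 for 72 h at 37° C, 5% CO2. Replication read as luciferase luminescence, expressed as percentage of untreated cultures; culture density measured in parallel by MTS.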

[3] = test system: Huh-5-2 cells; assay: as above; details: concentration required to inhibit the proliferation of exponentially growing Huh-5-2 cells by 50%
Outline: as §1

[4] = test system: HCV replicon I389luc-ubi-neo/NS3-3'/5.1; assay: Anti-HCV replicon assay (luciferase activity) in Huh-5-2 cells; format: cell-based, Hepatitis C virus; details: concentration required to inhibit luciferase activity in the replicon system by 50%
Outline: as §1

[5] = Hepatitis C virus, Huh-5-2, 72 h

Row | Compound | CC50 ([3]; Table 2) | IC50 [4, 5] | other results
1 | COCCN1C(=O)c2ccccc2C(C(=O)Nc2cccc(OC)c2)C1c1cccs1 (racemic) [C1, 2-(2-methoxyethyl)-N-(3-methoxyphenyl)-1-oxo-3-(thiophen-2-yl)-1,2,3,4-tetrahydroisoquinoline-4-carboxamide] |  |  | EC50 ([1]; Hepatitis C virus, Huh-5-2, concentration required to reduce the synthesis of HCV replicon by 50% as determined by real-time quantitative RT-PCR): 24 µg/mL (≈ 55 µM); CC50 at 72 h [2]: > 50 µg/mL; CC50 ([3]; Table 2, listed as C1 (cis)): 83.7 µg/mL (≈ 192 µM); IC50 ([4]; 72 hours, listed as C1 (cis)): 0.3 µg/mL (≈ 0.687 µM)
2 | COCCN1C(=O)c2ccccc2C(C(=O)Nc2cccc(OC)c2)C1c1cccs1 (racemic) [C2, 2-(2-methoxyethyl)-N-(3-methoxyphenyl)-1-oxo-3-(thiophen-2-yl)-1,2,3,4-tetrahydroisoquinoline-4-carboxamide] |  |  | EC50 ([1]; concentration required to reduce the synthesis of HCV replicon by 50% as determined by real-time quantitative RT-PCR): 17.000 µg/mL (≈ 38.9 µM); CC50 ([3]; Table 2, listed as C2 (trans)): 41.2 µg/mL (≈ 94.4 µM); CC50 ([3]; Table 4): >50 µg/mL; IC50 ([4]; 72 hours, listed as C2 (trans)): 1.3 µg/mL (≈ 2.98 µM)
3 | COCCN1C(=O)c2ccccc2C(C(=O)Nc2cccc(OC)c2)C1Cc1ccccc1 (stereo not drawn) [C68, 3-Benzyl-2-(2-methoxyethyl)-N-(3-methoxyphenyl)-1-oxo-1,2,3,4-tetrahydroisoquinoline-4-carboxamide] | 125 µg/mL (≈ 281 µM) | 70.6 µg/mL (≈ 159 µM) | 
4 | COCCN1C(=O)c2c(Cl)cccc2C(C(=O)Nc2cccc(OC)c2)C1c1cccs1 (stereo not drawn) [C24, 8-Chloro-2-(2-methoxyethyl)-N-(3-methoxyphenyl)-1-oxo-3-(thiophen-2-yl)-1,2,3,4-tetrahydroisoquinoline-4-carboxamide] | 125 µg/mL (≈ 265 µM) | 35.7 µg/mL (≈ 75.9 µM) | 
5 | COCCN1C(=O)c2ccccc2C(C(=O)NCc2ccc(OC)cc2)C1c1cccs1 (stereo not drawn) [C79, N-(4-methoxybenzyl)-2-(2-methoxyethyl)-1-oxo-3-(thiophen-2-yl)-1,2,3,4-tetrahydroisoquinoline-4-carboxamide] | 125 µg/mL (≈ 277 µM) | 68.2 µg/mL (≈ 151 µM) | 
6 | COCCN1C(=O)c2ccccc2C(C(=O)Nc2cccc(OC)c2)C1CC(F)(F)F (stereo not drawn) [C71, 2-(2-methoxyethyl)-N-(3-methoxyphenyl)-1-oxo-3-(2,2,2-trifluoroethyl)-1,2,3,4-tetrahydroisoquinoline-4-carboxamide] | 125 µg/mL (≈ 286 µM) | 12.6 µg/mL (≈ 28.8 µM) | 
7 | COCCN1C(=O)c2ccccc2C(CNc2ccc(Cl)cc2)C1c1cccs1 (stereo not drawn) [C78, 4-((4-chlorophenylamino)methyl)-2-(2-methoxyethyl)-3-(thiophen-2-yl)-3,4-dihydroisoquinolin-1(2H)-one] | 125 µg/mL (≈ 293 µM) | 50.5 µg/mL (≈ 118 µM) | 
